In paper PMC11255275, “Structural insights into the triple agonism at GLP-1R, GIPR and GCGR manifested by retatrutide” (Cell Discovery, 2024):

Columns and labels:
Assay type in all cases: cell-based
GLP-1R mutants [1] = molecular target: T1, GLP-1R mutants (Homo sapiens, UniProt P43220, E138R); test: cAMP accumulation, single-point mutated GLP-1R; details: GLP-1R E138(1.33b)R; HEK-293T, 40 min, TR-FRET; mean ± S.E.M., n at least 3
T1 construct: expressed in transfected cells; host or cells: HEK-293T
Experimental: (§1) HEK-293T cells were maintained at 37°C in 5% CO2 incubator and seeded onto 6-well cell […]
(§2) culture plates before transfection. After overnight culture, the cells were transiently transfected […]
(§3) with various constructs using Lipofectamine 2000 transfection reagent (Invitrogen). After 24 h, […]
(§4) the transfected cells were seeded onto 384-microtiter plates at a density of 3,000 cells per well […]
(§5) in stimulation buffer (HBSS supplemented with 5 mM HEPES, 0.1% (w/v) casein and 0.5 mM […]
(§6) 3-isobutyl-1-methylxanthine). Different concentrations of retatrutide in stimulation buffer were […]
(§7) added, and the stimulation lasted for 40 min. The reaction was stopped by addition of cAMP […]
(§8) detection buffer containing Eu-cAMP tracer and ULight-anti-cAMP. Plates were then incubated for […]
(§9) 60 min at RT. Time-resolved FRET signals were measured at 620 nm and 665 nm, respectively, by […]
(§10) an EnVision multilabel plate reader (PerkinElmer). Data were analyzed in GraphPad PRISM 9.5 […]
(§11) and all values were normalized to that of the wild-type (WT).
(§12) Supplementary Fig. 5 Effects of receptor mutation on retatrutide-induced cAMP […]
(§13) accumulation. a-c, Signaling profiles of GLP-1R (a), GIPR (b) and GCGR (c) mutants. cAMP […]
(§14) accumulation was measured in wild-type (WT) and single-point mutated GLP-1R, GIPR or […]
(§15) GCGR expressing HEK-293T cells. cAMP levels were normalized to the maximum response […]
(§16) of the WT and dose-response curves were analyzed using a three-parameter logistic equation.
(§17) Data were generated and graphed as means ± S.E.M. of at least three independent experiments performed in quadruplicate.
(§18) (1 picture or pasted object on this page, not shown here)
(§19) Supplementary Ta b l e S 5 Effects of the ligand-binding pocket residue mutation on retatrutide- […]
(§20) induced cAMP signaling at GLP-1R, GIPR or GCGR. […]
(§21) cAMP levels were normalized to the maximum response of the wild-type (WT) and dose-response […]
(§22) curves were analyzed using a three-parameter logistic equation to obtain pEC50 and Emax values. The […]
(§23) experiments were carried out independently at least three times. Data shown are means ± S.E.M. One- […]
(§24) way ANOVA was used to determine statistical difference. N.D., values that could not be determined due […]
(§25) to incomplete curve fits. *P< 0.05, **P< 0.01, ***P< 0.001 and ****P<0.0001.

GLP-1R mutants [2] = molecular target: T2, GLP-1R mutants (Homo sapiens, UniProt P43220, E387A); test: cAMP accumulation, single-point mutated GLP-1R; details: GLP-1R E387(7.42b)A; HEK-293T, 40 min, TR-FRET; mean ± S.E.M., n at least 3
T2 construct: expressed in transfected cells; host or cells: HEK-293T
Experimental: as §1, §2, §3, §4, §5, §6, §7, §8, §9, §10, §11, §12, §13, §14, §15, §16, §17, §18, §19, §20, §21, §22, §23, §24, §25

GLP-1R mutants [3] = molecular target: T3, GLP-1R mutants (Homo sapiens, UniProt P43220, W91A); test: cAMP accumulation, single-point mutated GLP-1R; details: GLP-1R W91(ECD)A, HEK-293T, 40 min, TR-FRET, mean ± S.E.M., n at least 3
T3 construct: expressed in transfected cells; host or cells: HEK-293T
Experimental: as §1, §2, §3, §4, §5, §6, §7, §8, §9, §10, §11, §12, §13, §14, §15, §16, §17, §18, §19, §20, §21, §22, §23, §24, §25

GIPR mutants [4] = molecular target: T4, GIPR mutants (Homo sapiens, UniProt P48546, E288T); test: cAMP accumulation, single-point mutated GIPR; details: GIPR E288(45.52b)T, HEK-293T, 40 min, TR-FRET, mean ± S.E.M., n at least 3
T4 construct: expressed in transfected cells; host or cells: HEK-293T
Experimental: as §1, §2, §3, §4, §5, §6, §7, §8, §9, §10, §11, §12, §13, §14, §15, §16, §17, §18, §19, §20, §21, §22, §23, §24, §25

GIPR mutants [5] = molecular target: T5, GIPR mutants (Homo sapiens, UniProt P48546, R289A); test: cAMP accumulation, single-point mutated GIPR; details: GIPR R289(ECL2)A, HEK-293T, 40 min, TR-FRET, mean ± S.E.M., n at least 3
T5 construct: expressed in transfected cells; host or cells: HEK-293T
Experimental: as §1, §2, §3, §4, §5, §6, §7, §8, §9, §10, §11, §12, §13, §14, §15, §16, §17, §18, §19, §20, §21, §22, §23, §24, §25

GIPR mutants [6] = molecular target: T6, GIPR mutants (Homo sapiens, UniProt P48546, Q285A); test: cAMP accumulation, single-point mutated GIPR; details: GIPR Q285(ECL2)A; HEK-293T, 40 min, TR-FRET; mean ± S.E.M., n at least 3
T6 construct: expressed in transfected cells; host or cells: HEK-293T
Experimental: as §1, §2, §3, §4, §5, §6, §7, §8, §9, §10, §11, §12, §13, §14, §15, §16, §17, §18, §19, §20, §21, §22, §23, §24, §25

GIPR mutants [7] = molecular target: T7, GIPR mutants (Homo sapiens, UniProt P48546, R196Y); test: cAMP accumulation, single-point mutated GIPR; details: GIPR R196(ECL1)Y
T7 construct: expressed in transfected cells; host or cells: HEK-293T
T7 sequence (P48546 22-466 R196Y): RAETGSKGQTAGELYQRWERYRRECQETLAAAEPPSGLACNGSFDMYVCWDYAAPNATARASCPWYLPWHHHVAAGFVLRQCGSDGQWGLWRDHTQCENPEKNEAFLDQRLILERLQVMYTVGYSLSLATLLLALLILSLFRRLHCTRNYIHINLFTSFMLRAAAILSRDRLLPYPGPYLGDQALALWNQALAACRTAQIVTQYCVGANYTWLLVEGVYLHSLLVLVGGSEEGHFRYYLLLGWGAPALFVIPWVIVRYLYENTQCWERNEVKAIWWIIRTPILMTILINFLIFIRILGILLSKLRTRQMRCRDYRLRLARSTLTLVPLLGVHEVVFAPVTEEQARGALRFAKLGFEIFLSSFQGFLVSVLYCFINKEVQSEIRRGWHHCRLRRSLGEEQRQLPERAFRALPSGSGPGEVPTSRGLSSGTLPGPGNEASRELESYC
Experimental: as §1, §2, §3, §4, §5, §6, §7, §8, §9, §10, §11, §12, §13, §14, §15, §16, §17, §18, §19, §20, §21, §22, §23, §24, §25

GIPR mutants [8] = molecular target: T8, GIPR mutants (Homo sapiens, UniProt P48546, Y36A); test: cAMP accumulation, single-point mutated GIPR; details: GIPR Y36(ECD)A; HEK-293T, 40 min, TR-FRET; mean ± S.E.M., n at least 3
T8 construct: expressed in transfected cells; host or cells: HEK-293T
Experimental: as §1, §2, §3, §4, §5, §6, §7, §8, §9, §10, §11, §12, §13, §14, §15, §16, §17, §18, §19, §20, §21, §22, §23, §24, §25

GIPR mutants [9] = molecular target: T9, GIPR mutants (Homo sapiens, UniProt P48546, P195K); test: cAMP accumulation, single-point mutated GIPR; details: GIPR P195(2.72b)K, relative to WT; pEC50 and Emax N.D. (incomplete curve fits)
T9 construct: expressed in transfected cells; host or cells: HEK-293T
Experimental: as §1, §2, §3, §4, §5, §6, §7, §8, §9, §10, §11, §12, §13, §14, §15, §16, §17, §18, §19, §20, §21, §22, §23, §24, §25

GIPR mutants [10] = molecular target: T10, GIPR mutants (Homo sapiens, UniProt P48546, W209A); test: cAMP accumulation, single-point mutated GIPR; details: GIPR W209(ECL1)A; HEK-293T, 40 min, TR-FRET; mean ± S.E.M., n at least 3
T10 construct: expressed in transfected cells; host or cells: HEK-293T
Experimental: as §1, §2, §3, §4, §5, §6, §7, §8, §9, §10, §11, §12, §13, §14, §15, §16, §17, §18, §19, §20, §21, §22, §23, §24, §25

GIPR mutants [11] = molecular target: T11, GIPR mutants (Homo sapiens, UniProt P48546, F127A); test: cAMP accumulation, single-point mutated GIPR; details: GIPR F127(1.29b)A; HEK-293T, 40 min, TR-FRET; mean ± S.E.M., n at least 3
T11 construct: expressed in transfected cells; host or cells: HEK-293T
Experimental: as §1, §2, §3, §4, §5, §6, §7, §8, §9, §10, §11, §12, §13, §14, §15, §16, §17, §18, §19, §20, §21, §22, §23, §24, §25

T2 sequence (P43220 24-463 E387A): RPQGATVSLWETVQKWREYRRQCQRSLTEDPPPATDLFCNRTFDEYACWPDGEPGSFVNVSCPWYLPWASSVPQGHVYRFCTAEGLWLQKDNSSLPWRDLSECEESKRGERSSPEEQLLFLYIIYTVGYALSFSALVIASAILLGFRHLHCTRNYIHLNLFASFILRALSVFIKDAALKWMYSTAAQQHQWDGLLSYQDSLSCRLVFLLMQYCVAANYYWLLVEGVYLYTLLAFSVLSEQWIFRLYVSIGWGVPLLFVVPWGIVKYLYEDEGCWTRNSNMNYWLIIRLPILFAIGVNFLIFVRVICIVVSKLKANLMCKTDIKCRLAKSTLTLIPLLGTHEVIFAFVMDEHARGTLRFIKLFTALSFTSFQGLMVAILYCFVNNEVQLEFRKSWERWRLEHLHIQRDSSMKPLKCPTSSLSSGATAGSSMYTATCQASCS
T5 sequence (P48546 22-466 R289A): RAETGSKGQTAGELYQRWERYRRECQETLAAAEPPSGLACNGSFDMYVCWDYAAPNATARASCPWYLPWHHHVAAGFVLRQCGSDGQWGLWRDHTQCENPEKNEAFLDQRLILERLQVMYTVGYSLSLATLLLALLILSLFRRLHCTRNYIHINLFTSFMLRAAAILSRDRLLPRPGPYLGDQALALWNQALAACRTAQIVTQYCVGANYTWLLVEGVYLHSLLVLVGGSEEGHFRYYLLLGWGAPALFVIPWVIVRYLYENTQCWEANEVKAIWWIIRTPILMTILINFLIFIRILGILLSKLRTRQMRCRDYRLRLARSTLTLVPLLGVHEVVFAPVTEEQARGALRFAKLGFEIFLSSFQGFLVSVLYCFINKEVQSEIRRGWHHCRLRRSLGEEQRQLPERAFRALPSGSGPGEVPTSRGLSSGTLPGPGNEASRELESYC
T6 sequence (P48546 22-466 Q285A): as the sequence (P48546 22-466 R289A) above, with Q264A, A268R counted along it
T8 sequence (P48546 22-466 Y36A): as the sequence (P48546 22-466 R289A) above, with Y15A, A268R counted along it
T11 sequence (P48546 22-466 F127A): as the sequence (P48546 22-466 R289A) above, with F106A, A268R counted along it
T10 sequence (P48546 22-466 W209A): as the sequence (P48546 22-466 R289A) above, with W188A, A268R counted along it
T1 sequence (P43220 24-463 E138R): as the sequence (P43220 24-463 E387A) above, with E115R, A364E counted along it
T4 sequence (P48546 22-466 E288T): as the sequence (P48546 22-466 R289A) above, with E267T, A268R counted along it
T3 sequence (P43220 24-463 W91A): as the sequence (P43220 24-463 E387A) above, with W68A, A364E counted along it
T9 sequence (P48546 22-466 P195K): as the sequence (P48546 22-466 R289A) above, with P174K, A268R counted along it

CC[C@H](C)[C@H](NC(=O)[C@H](Cc1ccccc1)NC(=O)[C@H](C)NC(=O)C(C)(C)NC(=O)[C@H](CCC(N)=O)NC(=O)[C@H](C)NC(=O)[C@H](CCCCNC(=O)COCCOCCNC(=O)CC[C@H](NC(=O)CCCCCCCCCCCCCCCCCCC(=O)O)C(=O)O)NC(=O)[C@H](CCCCN)NC(=O)[C@H](CC(=O)O)NC(=O)[C@H](CC(C)C)NC(=O)[C@](C)(CC(C)C)NC(=O)[C@@H](NC(=O)[C@H](CO)NC(=O)[C@H](Cc1ccc(O)cc1)NC(=O)[C@H](CC(=O)O)NC(=O)[C@H](CO)NC(=O)[C@@H](NC(=O)[C@H](Cc1ccccc1)NC(=O)[C@@H](NC(=O)CNC(=O)[C@H](CCC(N)=O)NC(=O)C(C)(C)NC(=O)[C@@H](N)Cc1ccc(O)cc1)[C@@H](C)O)[C@@H](C)O)[C@@H](C)CC)C(=O)N[C@@H](CCC(=O)O)C(=O)N[C@@H](Cc1ccc(O)cc1)C(=O)N[C@@H](CC(C)C)C(=O)N[C@@H](CC(C)C)C(=O)N[C@@H](CCC(=O)O)C(=O)NCC(=O)NCC(=O)N1CCC[C@H]1C(=O)N[C@@H](CO)C(=O)N[C@@H](CO)C(=O)NCC(=O)N[C@@H](C)C(=O)N1CCC[C@H]1C(=O)N1CCC[C@H]1C(=O)N1CCC[C@H]1C(=O)N[C@@H](CO)C(N)=O [retatrutide]
EC50 (GLP-1R mutants [1]): 3.55 pM | Emax ± S.E.M. (% WT) (GLP-1R mutants [1]): 100.84 ± 3.40 % WT | EC50 (GLP-1R mutants [2]): 9.33 pM | Emax ± S.E.M. (% WT) (GLP-1R mutants [2]): 100.40 ± 3.44 % WT | Emax ± S.E.M. (% WT) (GLP-1R mutants [3]): 102.36 ± 4.73 % WT | EC50 (GLP-1R mutants [3]; ****P < 0.0001): 83.2 pM | Emax ± S.E.M. (% WT) (GIPR mutants [4]): 100.81 ± 2.93 % WT | EC50 (GIPR mutants [4]; **P < 0.01): 8.91 pM | Emax ± S.E.M. (% WT) (GIPR mutants [5]): 98.56 ± 4.01 % WT | EC50 (GIPR mutants [5]; ***P < 0.001): 12.6 pM | EC50 (GIPR mutants [6]): 1.74 pM | Emax ± S.E.M. (% WT) (GIPR mutants [6]): 100.34 ± 4.02 % WT | decrease of retatrutide potency by mutation (GIPR mutants [7]; relative to WT): 107.7 fold | Emax ± S.E.M. (% WT) (GIPR mutants [7]; HEK-293T, 40 min, TR-FRET, mean ± S.E.M., n at least 3): 92.16 ± 5.36 % WT | EC50 (GIPR mutants [7]; HEK-293T, 40 min, TR-FRET, mean ± S.E.M., n at least 3, ****P < 0.0001): 245 pM | EC50 (GIPR mutants [8]): 3.09 pM | Emax ± S.E.M. (% WT) (GIPR mutants [8]): 99.10 ± 3.86 % WT | change of GIPR-mediated cAMP accumulation by mutation (GIPR mutants [9]): markedly decreased | EC50 (GIPR mutants [10]): 2 pM | Emax ± S.E.M. (% WT) (GIPR mutants [10]): 100.17 ± 3.21 % WT | EC50 (GIPR mutants [11]): 4.17 pM | Emax ± S.E.M. (% WT) (GIPR mutants [11]): 99.67 ± 4.00 % WT
